Reference: patent US20050034187A1, “Modified tet-inducible system for regulation of gene expression in plants” (priority 2000, published 2005)

Tested on: tet-inducible luciferase cassettes with (OCS)3MAS/nTR
Experiment: Leaf disk induction assay, luciferase
Assay type: cell-based, tobacco
Settings: for maximum magnitude of induction (luciferase): FIGS. 14 and 15; for highest induction in some lines (luciferase) / average induction of the reporter (luciferase): doxycycline 5 mg/l
Experimental: FIG. 9—Doxycycline-Mediated Induction of Expression of Luciferase from (OCS)3triplexmin Promoter in Plants is Stronger than TripleX. This experiment was performed in order to test the performance of OCS elements-modified TripleX promoter on the whole plant level. Transgenic tobacco plants carrying (OCS)3MAS/nTR, NPTII, and either of (OCS)3TripleXmin/LUC or TripleX/LUC cassettes were tested in leaf disk induction assays: 5-10 mm leaf disks were excised from plants and put into six- or twelve-well plates with liquid MS medium and with or without Doxy 5 mg/l at 5 mg/l. Luciferase assays were performed with the tissues 5 days later. Each bar represents one sample; numbers above the bars represent magnitude of induction.
FIG. 10—Doxycycline-Mediated Induction of Expression of Luci erase from (OCS)3triplexmin Promoter in Plants is Stronger than TripleX. […] 5-10 mm leaf disks and pieces of roots were excised from plants and put into six- or twelve-well plates with liquid MS medium and with or without Doxy 5 mg/l at 5 mg/l. Luciferase assays were performed with the tissues 5 days later. Each bar represents an average of three samples; numbers above the bars represent magnitude of induction.
FIG. 13—Doxycycline-Mediated Induction of Expression of Luciferase in Inducible Cassettes With or Without One or More MAR Elements. This experiment was performed in order to test the effect of placing inducible luciferase gene between one or more MAR elements. Tobacco plants carrying TripleX/LUC cassette placed between one or more MAR elements, (OCS)3MAS/nTR and NPTII genes (pACAG073 and pACAG081) as well as the reference cassette without one or more MAR elements (pACAG085) were used as donors of 5-10 mm leaf disks which were cultivated in six- or twelve-well plates with liquid MS medium with or without doxycycline 5 mg/l for five days. Samples were assayed for luciferase activity. Each bar represents one sample; numbers above the bars represent magnitude of induction.
FIG. 14—Doxycycline-Mediated Induction of Luciferase in Leaves Carrying Inducible Cassettes With or Without One or More MAR Elements. This experiment was performed in order to test the effect of placing inducible luciferase gene between one or more MAR elements. […] 5-10 mm leaf disks and pieces of roots were excised from plants and put into six- or twelve-well plates with liquid MS medium and with or without Doxy 5 mg/l at 5 mg/l. Luciferase assays were performed with the tissues 5 days later. Each bar represents an average of three samples; numbers above the bars represent magnitude of induction.
Evaluation of tet inducible system in plant tissues. 5-10 mm leaf disks were excised from plants and put into six- or twelve-well plates with liquid MS medium and with or without a tet analog at 5 mg/l. When transgenic plants carried cassettes for induction of herbicide resistance, the medium was supplemented with PURSUIT® at concentration of 1 μM or higher. These plates were cultivated in dark on shaker at 90 rpm for 5 days (three weeks for analysis of induction of herbicide resistance) and then used in assays or evaluated visually. Another test was designed for evaluation of inducible herbicide resistance. In this test leaf disks were placed on MS agar supplemented with. 1 mg/l of BAP and PURSUIT® at concentration of 1 μM or higher either alone or with a tet analog at 5 mg/l. Three weeks later the induction of regeneration from these disks was evaluated.

## C[C@H]1c2cccc(O)c2C(=O)C2=C(O)[C@]3(O)C(=O)C(C(N)=O)=C(O)[C@@H](N(C)C)[C@@H]3[C@@H](O)[C@@H]21 [doxycycline]
Cassettes carrying at least one MAR element, Doxy 5 mg/l
  maximum magnitude of induction (luciferase): 50 fold
Cassettes without MAR element, Doxy 5 mg/l
  maximum magnitude of induction (luciferase): 80 fold
pACAG085 (TripleX/LUC), Doxy 5 mg/l, leaf disks, FIG. 10
  maximum induction (luciferase): 83 fold
pACAG113 and pACAG085 plants, FIG. 9
  highest induction in some lines (luciferase): 100 fold
pACAG113 and pACAG085 plants, leaf disks, FIG. 9
  average induction of the reporter (luciferase): 30 to 40 fold
pACAG113 cassette ((OCS)3TripleXmin/LUC), Doxy 5 mg/l, leaf disks, FIG. 10
  magnitude of induction for several lines (luciferase): higher than 100 fold
The other three cassettes with or without MAR, FIG. 13
  average induction of the reporter (luciferase): 30 to 40 fold
The other three cassettes, FIG. 13
  highest induction in some lines (luciferase): 100 fold
